Converted amounts (≈) assume the structure as drawn. Like-named read-outs stand apart in the source and are kept apart here.
How the values were obtained:
Assay type in all cases: cell-based
[1] = test system: Streptococcus pyogenes 1079; assay: MIC, microtiter broth dilution (NCCLS M100-S14), S. pyogenes 1079 (ermB)
In short: (§1)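 Microtiter broth dilution; interpretation per NCCLS M100-S14; endpoint = MIC. Stock: 40 mg/ml in DMSO.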

[2] = test system: Haemophilus influenzae 1218; assay: MIC, microtiter broth dilution (NCCLS M100-S14), H. influenzae 1218 (susceptible)
In short: as §1

[3] = test system: Streptococcus pneumoniae 1175; conditions: microtiter broth dilution
In short: as §1

[4] = test system: Streptococcus pneumoniae 1095; conditions: microtiter broth dilution
In short: as §1

[5] = test system: Streptococcus pneumoniae 1016; assay: MIC, microtiter broth dilution (NCCLS M100-S14), S. pneumoniae 1016 (susceptible)
In short: as §1

[6] = H. influenzae 1218 (susceptible)
[7] = S. pneumoniae 1016 (susceptible)

Row | Compound | MIC S. pyogenes 1079 ([1]; S. pyogenes 1079 (ermB)) | MIC H. influenzae 1218 [2, 6] | MIC S. pneumo. 1175 ([3]; S. pneumoniae 1175 (mefA)) | MIC S. pneumo. 1095 ([4]; S. pneumoniae 1095 (ermB)) | MIC S. pneumo. 1016 [5, 7] | MIC S. pyogenes 1079 ([1]; Streptococcus pyogenes 1079) | MIC H. influenzae 1218 ([2]; Haemophilus influenzae 1218) | MIC S. pneumo. 1175 ([3]; Streptococcus pneumoniae 1175) | MIC S. pneumo. 1095 ([4]; Streptococcus pneumoniae 1095) | MIC S. pneumo. 1016 ([5]; Streptococcus pneumoniae 1016)
1 | CC[C@H]1OC(=O)[C@H](C)C(=O)[C@H](C)[C@@H](O[C@@H]2O[C@H](C)C[C@H](N(C)C)[C@H]2O)[C@](C)(OC)C[C@@H](C)C(=O)[C@H](C)[C@H]2N(CC3(O)CN(Cc4ccc5nccnc5c4)C3)C(=O)O[C@]12C [7.03] | >64.00 µg/mL | 0.5 µg/mL (≈ 0.595 µM) | 0.12 µg/mL (≈ 0.143 µM) | 0.12 µg/mL (≈ 0.143 µM) | <0.06 µg/mL | – | – | – | – | –
2 | CCC1OC(=O)C(C)C(=O)C(C)C(OC2OC(C)CC(N(C)C)C2O)C(C)(OC)CC(C)C(=O)C(C)C2N(CC3CCCN3C(=O)c3cccc4ncccc34)C(=O)OC12C [Example 12.11, 3-descladinosyl-11,12-dideoxy-6-O-methyl-3-oxo-12,11-(oxycarbonyl-((1-(quinoline-5-carbonyl)-(S)pyrrolidin-2-yl)-methyl)-imino)-erythromycin A] | >64.00 µg/mL | 8 µg/mL (≈ 9.4 µM) | 1 µg/mL (≈ 1.18 µM) | 0.5 µg/mL (≈ 0.588 µM) | <0.06 µg/mL | – | – | – | – | –
3 | CCC1OC(=O)C(C)C(=O)C(C)C(OC2OC(C)CC(N(C)C)C2O)C(C)(OC)CC(C)C(=O)C(C)C2N(CC3CCN(C(=O)c4ccc5ncccc5c4)C3)C(=O)OC12C (centres unmarked) [13.12] | >64.00 µg/mL | 4 µg/mL (≈ 4.7 µM) | 0.5 µg/mL (≈ 0.588 µM) | >64.00 µg/mL | <0.06 µg/mL | – | – | – | – | –
4 | CCC1OC(=O)C(C)C(=O)C(C)C(OC2OC(C)CC(N(C)C)C2O)C(C)(OC)CC(C)C(=O)C(C)C2N(C3CN(S(=O)(=O)c4cncc(-c5cnco5)c4)C3)C(=O)OC12C (centres unmarked) [Example 3.75] | – | – | – | – | – | 16 µg/mL (≈ 18.3 µM) | 1 µg/mL (≈ 1.14 µM) | <0.06 µg/mL | <0.06 µg/mL | <0.06 µg/mL
5 | CC[C@H]1OC(=O)[C@H](C)C(=O)[C@H](C)[C@@H](O[C@@H]2O[C@H](C)C[C@H](N(C)C)[C@H]2O)[C@](C)(OC)C[C@@H](C)C(=O)[C@H](C)[C@H]2N(CC3(C)CN(Cc4c[nH]c5ccc(F)cc45)C3)C(=O)O[C@]12C [6.08] | – | – | – | – | – | 16 µg/mL (≈ 19 µM) | 0.5 µg/mL (≈ 0.593 µM) | 0.25 µg/mL (≈ 0.297 µM) | <0.06 µg/mL | <0.06 µg/mL
6 | CC[C@H]1OC(=O)[C@H](C)C(=O)[C@H](C)[C@@H](O[C@@H]2O[C@H](C)C[C@H](N(C)C)[C@H]2O)[C@](C)(OC)C[C@@H](C)C(=O)[C@H](C)[C@H]2N(CC3(O)CN(Cc4c[nH]c(=O)[nH]c4=O)C3)C(=O)O[C@]12C [7.09] | >64.00 µg/mL | 16 µg/mL (≈ 19.5 µM) | 16 µg/mL (≈ 19.5 µM) | 64 µg/mL (≈ 77.9 µM) | 0.5 µg/mL (≈ 0.608 µM) | – | – | – | – | –
7 | CCC1OC(=O)C(C)C(=O)C(C)C(OC2OC(C)CC(N(C)C)C2O)C(C)(OC)CC(C)C(=O)C(C)C2N(CC3CN(S(=O)(=O)c4cccc(C#N)c4)C3)C(=O)OC12C (centres unmarked) [4.07] | – | – | – | – | – | >64.00 µg/mL | 1 µg/mL (≈ 1.18 µM) | 0.19 µg/mL (≈ 0.224 µM) | 24 µg/mL (≈ 28.3 µM) | <0.06 µg/mL
8 | CCC1OC(=O)C(C)C(=O)C(C)C(OC2OC(C)CC(N(C)C)C2O)C(C)(OC)CC(C)C(=O)C(C)C2N(CC3CCN(Cc4ccc(-c5ccccn5)cc4)C3)C(=O)OC12C (centres unmarked) [13.05] | >64.00 µg/mL | 4 µg/mL (≈ 4.63 µM) | 0.5 µg/mL (≈ 0.579 µM) | 16 µg/mL (≈ 18.5 µM) | <0.06 µg/mL | – | – | – | – | –
9 | CCOc1ccc(S(=O)(=O)N2CC(N3C(=O)OC4(C)C(CC)OC(=O)C(C)(F)C(=O)C(C)C(OC5OC(C)CC(N(C)C)C5O)C(C)(OC)CC(C)C(=O)C(C)C34)C2)cc1C#N (centres unmarked) [Example 3.103, 3-descladinosyl-11,12-dideoxy-2-fluoro-6-O-methyl-3-oxo-12,11-(oxycarbonyl-(1-(3-cyano-4-ethoxybenzene-1-sulfonyl)-azetidin-3-yl)-imino)-erythromycin A] | – | – | – | – | – | 0.5 µg/mL (≈ 0.559 µM) | 2 µg/mL (≈ 2.23 µM) | <0.063 µg/mL | <0.063 µg/mL | <0.063 µg/mL
10 | CCC1OC(=O)C(C)C(=O)C(C)C(OC2OC(C)CC(N(C)C)C2O)C(C)(OC)CC(C)C(=O)C(C)C2N(CC3CN(C(c4ccccc4)c4ccccc4)C3)C(=O)OC12C (centres unmarked) [Example 4.01, 3-descladinosyl-11,12-dideoxy-6-O-methyl-3-oxo-12,11-(oxycarbonyl-(1-(benzhydryl)-(azetidin-3-yl)-methyl)-imino)-erythromycin A] | – | – | – | – | – | 6.25 µg/mL (≈ 7.37 µM) | 6.25 µg/mL (≈ 7.37 µM) | 0.39 µg/mL (≈ 0.46 µM) | 0.39 µg/mL (≈ 0.46 µM) | <0.00 µg/mL
11 | CC[C@H]1OC(=O)[C@H](C)[C@@H](OC(=O)N2CCCC2)[C@H](C)[C@@H](O[C@@H]2O[C@H](C)C[C@H](N(C)C)[C@H]2O)[C@](C)(OC)C[C@@H](C)C(=O)[C@H](C)[C@H]2N(CC3CN(Cc4nccc5ccccc45)C3)C(=O)O[C@]12C [Example 5.09, 2-R^2: (isoquinolin-1-yl)methyl; R^#: pyrrolidin-1-yl] | – | – | – | – | – | 64 µg/mL (≈ 69.4 µM) | 2 µg/mL (≈ 2.17 µM) | <0.06 µg/mL | 1 µg/mL (≈ 1.08 µM) | <0.06 µg/mL
12 | CC[C@H]1OC(=O)[C@H](C)C(=O)[C@H](C)[C@@H](O[C@@H]2O[C@H](C)C[C@H](N(C)C)[C@H]2O)[C@](C)(OC)C[C@@H](C)C(=O)[C@H](C)[C@H]2N(CC3(O)CN(C(=O)c4ccc5nccnc5c4)C3)C(=O)O[C@]12C [7.18] | >64.00 µg/mL | 2 µg/mL (≈ 2.34 µM) | 0.25 µg/mL (≈ 0.293 µM) | 0.25 µg/mL (≈ 0.293 µM) | <0.06 µg/mL | – | – | – | – | –
13 | CCC1OC(=O)C(C)C(=O)C(C)C(OC2OC(C)CC(N(C)C)C2O)C(C)(OC)CC(C)C(=O)C(C)C2N(C3CN(S(=O)(=O)c4cccc(-c5ncon5)c4)C3)C(=O)OC12C (centres unmarked) [Example 3.41, 3-descladinosyl-11,12-dideoxy-6-O-methyl-3-oxo-12,11-(oxycarbonyl-(1-(3-(1,2,4-oxadiazol-3-yl)benzenesulfonyl)-azetidin-3-yl)-imino)-erythromycin A] | – | – | – | – | – | 8 µg/mL (≈ 9.13 µM) | 0.25 µg/mL (≈ 0.285 µM) | <0.06 µg/mL | <0.06 µg/mL | <0.06 µg/mL
14 | CCC1OC(=O)C(C)C(=O)C(C)C(OC2OC(C)CC(N(C)C)C2O)C(C)(OC)CC(C)C(=O)C(C)C2N(CC3CCCN3C(=O)c3cccc4cccnc34)C(=O)OC12C (centres unmarked) [12.10] | >64.00 µg/mL | 8 µg/mL (≈ 9.4 µM) | 2 µg/mL (≈ 2.35 µM) | 0.5 µg/mL (≈ 0.588 µM) | <0.06 µg/mL | – | – | – | – | –
15 | CCC1OC(=O)C(C)C(=O)C(C)C(OC2OC(C)CC(N(C)C)C2O)C(C)(OC)CC(C)C(=O)C(C)C2N(C3CN(S(=O)(=O)c4ccc(-n5nc(C)cc5C)cc4)C3)C(=O)OC12C (centres unmarked) [Example 3.47, 4-(3,5-dimethyl-1H-pyrazol-1-yl)benzenesulfonyl] | – | – | – | – | – | 64 µg/mL (≈ 70.9 µM) | 8 µg/mL (≈ 8.87 µM) | <0.06 µg/mL | 0.5 µg/mL (≈ 0.554 µM) | <0.06 µg/mL
16 | CCC1OC(=O)C(C)C(=O)C(C)C(OC2OC(C)CC(N(C)C)C2O)C(C)(OC)CC(C)C(=O)C(C)C2N(CC3CN(Cc4c(C)ccc5nc[nH]c45)C3)C(=O)OC12C.O=CO (centres unmarked) [Example 4.44, 3-descladinosyl-11,12-dideoxy-6-O-methyl-3-oxo-12,11-(oxycarbonyl-(1-((6-methyl-1H-benzo[d]imidazol-7-yl)-methyl)-(azetidin-3-yl)-methyl)-imino)-erythromycin A] | – | – | – | – | – | 8 µg/mL | 0.25 µg/mL | <0.06 µg/mL | 0.5 µg/mL | <0.06 µg/mL
17 | CCC1OC(=O)C(C)C(=O)C(C)C(OC2OC(C)CC(N(C)C)C2O)C(C)(OC)CC(C)C(=O)C(C)C2N(CC3CCN(Cc4cnn(-c5cccnc5)c4)C3)C(=O)OC12C (centres unmarked) [11.15] | 64 µg/mL (≈ 75 µM) | 2 µg/mL (≈ 2.34 µM) | 0.5 µg/mL (≈ 0.586 µM) | <0.06 µg/mL | <0.06 µg/mL | – | – | – | – | –
18 | CCC1OC(=O)C(C)C(=O)C(C)C(OC2OC(C)CC(N(C)C)C2O)C(C)(OC)CC(C)C(=O)C(C)C2N(C3CCN(Cc4cnc5ccccc5c4)C3)C(=O)OC12C (centres unmarked) [Example 9.04, (quinolin-3-yl)methyl] | 32 µg/mL (≈ 38.9 µM) | 0.5 µg/mL (≈ 0.608 µM) | <0.06 µg/mL | <0.06 µg/mL | <0.06 µg/mL | – | – | – | – | –
19 | CC[C@H]1OC(=O)[C@H](C)C(=O)[C@H](C)[C@@H](O[C@@H]2O[C@H](C)C[C@H](N(C)C)[C@H]2O)[C@](C)(OC)C[C@@H](C)C(=O)[C@H](C)[C@H]2N(C3CN(C(C)c4ccnc5ccccc45)C3)C(=O)O[C@]12C (some centres unmarked) [Example 1.63, 3-descladinosyl-11,12-dideoxy-6-O-methyl-3-oxo-12,11-(oxycarbonyl-(1-(1-(quinolin-4-yl)-ethyl)-azetidin-3-yl)-imino)-erythromycin A] | – | – | – | – | – | 2 µg/mL (≈ 2.43 µM) | 1 µg/mL (≈ 1.22 µM) | 0.12 µg/mL (≈ 0.146 µM) | <0.06 µg/mL | <0.06 µg/mL

— patent publication US7462600B2, “Macrolides” (Pfizer Inc, priority 2004, dated 2008)
